In one data set the test system is BV-2. Kind of data set: Anti-neuroinflammatory activity in mouse BV2 cells assessed as inhibition of LPS-induced NO production after 24 hrs by Griess assay. The format is functional, cell-based. The settings on record: BV-2, 24 h.
Data set [1] in a line: Cytotoxicity against mouse BV2 cells assessed as viable cells at 20 uM by MTT assay. It is filed as cell-based, BV-2. The settings on record: read-out: Activity.
For a further data set, the system named is C6. Kind of data set: Stimulation of NGF secretion in rat C6 cells at 20 uM after 24 hrs by ELISA. The format is functional.
Data set [2] can be described thus: Cytotoxicity against rat C6 cells assessed as viable cells at 20 uM by MTT assay. It is filed as cell-based. The settings on record: read-out: Activity. Background: Tetrazolium assays rely on reduction of a dye to a coloured formazan, in cell work by metabolically active cells.
The subject of another data set is A549. The data set can be described thus: Cytotoxicity against human A549 cells after 48 hrs by SRB assay. It is filed as functional, cell-based. The settings on record: A549, 48 h. Background: The SRB assay estimates cell density from bound dye.
Data set [3] is described as follows: Cytotoxicity against human SKOV3 cells after 48 hrs by SRB assay. The format is functional, cell-based. To be noted: SK-OV-3, 48 h.
The next data set relates to SK-MEL-2. Kind of data set: Cytotoxicity against human SK-MEL-2 cells after 48 hrs by SRB assay. The format is functional, cell-based. To be noted: SK-MEL-2, 48 h.
Data set [4] can be described thus: Cytotoxicity against human HCT15 cells after 48 hrs by SRB assay. To be noted: HCT-15, 48 h. The format is functional, cell-based.

The IC50 is the concentration that inhibits the measured activity by half. With `COc1cc(-c2ccccc2O)cc(OC)c1O`, the IC50 in the data set with BV-2 was found to be 38.1 µM. Also, the figures for the viability at 20 µM in data set [1] and in data set [2] were 118% and 119%, respectively. In addition, the Activity in the data set on C6 was 137.33%.

Consider `COc1ccc2c(oc3c(OC)c(OC)c(O)cc32)c1O`, for which the IC50 was over 30 µM with A549; 19.3 µM in data set [3]; 23.5 µM in the data set with SK-MEL-2; over 30 µM in data set [4]; 15.8 µM in the data set with BV-2. In addition, the viability at 20 µM in data set [1] worked out at 198%; in data set [2], 113%. The compound also came in with an Activity in the data set with C6 of 186.49%.

Regarding `COc1ccc(-c2cc(OC)c(O)c(OC)c2)c(OC)c1`, the IC50 turned out to be 5.18 µM in the data set with A549; 7.84 µM in data set [3]; 6.94 µM with SK-MEL-2; 7.81 µM in data set [4]; 39.6 µM with BV-2. For the same compound, the viability at 20 µM in data set [1] worked out at 129%; in data set [2] it was 119%. The same compound came in with an Activity in the data set with C6 of 164.56%.

With `COc1ccc(-c2cc(OC)c(O)c(Oc3c(OC)cc([C@@H](O)[C@H](O)CO)cc3OC)c2)c(OC)c1`, the IC50 turned out to be 12.7 µM in the data set with A549; 29.5 µM in data set [3]; 16.3 µM in the data set with SK-MEL-2; 27.3 µM in data set [4]; 48.4 µM with BV-2. Also, the viability at 20 µM in data set [1] turned out to be 132%; in data set [2] it was 115%. The Activity in the data set on C6 worked out at 125.81%.

For `COc1ccccc1-c1cc(OC)c(O)c(OC)c1`, in the data set with BV-2, the IC50 came out at 28.1 µM. Further, the values for the viability at 20 µM in data set [1] and in data set [2] were 138% and 118%, respectively. In addition, the Activity in the data set with C6 was 152.86%.

`COc1cc(-c2ccccc2)cc(OC)c1O` [AUCUPARIN]: the IC50 in the data set on BV-2 is 50.1 µM. The viability at 20 µM in data set [1] is 126%; in data set [2], 117%. For the same compound, in the data set on C6, the Activity is 125.76%.

As to `COc1cc(-c2ccccc2)cc(Oc2c(OC)cc([C@@H](O)[C@H](O)CO)cc2OC)c1O` [BERBEKORIN A], the IC50 in the data set with A549 turned out to be 4.12 µM; in data set [3], 4.03 µM; in the data set with SK-MEL-2 it was 4.49 µM; in data set [4], 1.96 µM; with BV-2, 49.3 µM. Also, the results for the viability at 20 µM in data set [1] and in data set [2] were 116% and 119%, respectively. The Activity with C6 turned out to be 155.02%.

Take `COc1cc([C@@H]2c3cc4c(cc3[C@@H](O[C@@H]3O[C@@H]5CO[C@@H](C)O[C@H]5[C@H](O)[C@H]3O)[C@H]3COC(=O)[C@H]23)OCO4)cc(OC)c1O` [ETOPOSIDE]: the IC50 was found to be 1.74 µM in the data set with A549, 1.96 µM in data set [3], 1.33 µM in the data set with SK-MEL-2 and 2.95 µM in data set [4].

With `CCCCC/C=C/C(=O)CCc1ccc(O)c(OC)c1` [SHOGAOL], the Activity with C6 is listed as 158.18%. The viability at 20 µM in data set [2] is 110%.

Consider `CNC(=N)NCCC[C@H](N)C(=O)O` [TILARGININE], for which the IC50 in the data set on BV-2 was 20.5 µM. In data set [1], the viability at 20 µM was 100%.

For the origin of these results see ChEMBL document CHEMBL3745669, “Isolation of bioactive biphenyl compounds from the twigs of Chaenomeles sinensis” (Bioorg Med Chem Lett, 2016).
